Laboratory results published in US10154970B2, “Methods for immunomodulation of cancer and infectious disease therapy” (The Regents of the University of California, priority 2014, dated 2018).

Tests used:
IFN-γ [1] = experiment: IFN-γ mRNA expression in Jurkat cells by qRT-PCR, normalized with GAPDH; format: cell-based, human
Procedure: (§1) FIG. 1. Interferon gamma (IFN-γ) and interleukin (IL)-2 expression in human Jurkat cells following exposure to TRIP in vitro. Jurkat cells (2×10^6) were treated with different concentrations of TRIP as indicated for 24 hours. (A) IFN-γ and (B) IL-2 mRNA expression levels were detected by quantitative real-time polymerase chain reaction (qRT-PCR) and normalized with the expression of GAPDH. *p<0.05, **p<0.01, ***p<0.001.
FIG. 2. Effect of tamoxifen on TRIP-induced expression of IFN-γ in vitro. Jurkat cells (2×10^6) were treated with TRIP (2.5 μM) and/or tamoxifen (2.5 μM) for 24 hours. The expression levels of IFN-γ were analyzed by qRT-PCR and normalized with GAPDH. **p<0.01, ***p<0.005.
(§2) FIG. 3. Effects of TRIP alone and in combination with trifluoperazine (TFP) or LY294002 (LY) on IFN-γ and IL-2 in human Jurkat cells in vitro. Jurkat cells (2×10^6) were pretreated with different concentrations of (A, B) TFP (0, 0.1, 1.0, 5.0, and 10.0 μM) and (C, D) LY294002 (0, 1, 5, 10, and 25 μM) for 1 hour, then incubated with medium containing 2.5 μM of TRIP for 24 hours. (A, C) IFN-γ and (B, D) IL-2 mRNA expression levels were detected by qRT-PCR and normalized with the expression of GAPDH. *p<0.05, **p<0.01, ***p<0.001.
(§3) FIG. 4. Effects of calmodulin, PI3K and MAPK inhibition on TRIP-induced expression of IFN-γ and IL-2 in human Jurkat cells in vitro. Jurkat cells (2×10^6) were pretreated with PD98059 (50 μM), TFP (10 μM) and LY294002 (25 μM) for 1 hour, then incubated with medium containing 2.5 μM of TRIP for 24 hours. (A) IFN-γ and (B) IL-2 mRNA expression levels were detected by qRT-PCR and normalized with the expression of GAPDH. **p<0.01, ***p<0.001, ****p<0.0001.
(§4) The potential immune regulating effects of TRIP and the possible mechanism(s) involved were determined with in vitro experiments examining the expression of T cell activating cytokines in human acute T cell leukemia Jurkat cells. The expression of IFN-γ and IL-2 RNA following exposure to increasing concentrations of TRIP (i.e., ospemifene) were first examined, followed by the effects of combining tamoxifen with TRIP on the expression of these cytokines. Different inhibitors of key T cell activation pathways—trifluoperazine (TFP), an inhibitor of calmodulin, LY294002, an inhibitor of PI3K, and PD98059, a MAPK inhibitor—in combination with TRIP were assessed for their effects on TRIP-induced expression of IFN-γ and IL-2 in Jurkat cells.
(§5) Jurkat cells (2.0×10^6) were treated with different concentrations of TRIP as indicated on the x-axis for 24 hours. (A) IFN-γ and (B) IL-2 mRNA expression levels were detected by quantitative real-time polymerase chain reaction (qRT-PCR) and normalized with the expression of GAPDH. *p<0.05, **p<0.01, ***p<0.001.
The expression levels of IFN-γ were analyzed by qRT-PCR and normalized with GAPDH. **p<0.01, ***p<0.001.
(§6) T cell activation requires multiple signals including PI3K, MAPK and calcium signaling pathways, and in order to identify the potential mechanism through which TRIP affects immune activation, Jurkat cells (2.0×10^6) were pretreated with different concentrations of TFP (0, 0.1, 1.0, 5.0 and 10.0 μM) (A, B) or LY294002 (0, 1, 5, 10 and 25 μM) (C, D) for one hour, then incubated with medium containing 2.5 μM TRIP for 24 hours. IFN-γ and IL-2 expression levels were detected by qRT-PCR and normalized with the expression of GAPDH. *p<0.05, **p<0.01, ***p<0.001.
(§7) Jurkat cells (2×10^6) were pretreated with PD98059 (50 μM), TFP (10 μM) or LY294002 (25 μM) for one hour, then incubated with medium containing 2.5 μM TRIP for 24 hours. (A) IFN-γ and (B) IL-2 mRNA expression levels were detected by qRT-PCR and normalized with expression of GAPDH. **p<0.01, ***p<0.001, ****p<0.0001.
The effects on T cell activation of different functional group substitutions on the TRIP chemical structure (Formula Ia) were examined by measuring the expression of IFN-γ and IL-2 RNA in human acute T cell leukemia Jurkat cells in vitro. […]

IL-2 = IL-2 mRNA expression in Jurkat cells by qRT-PCR, normalized with GAPDH; format: cell-based, human
Procedure: as §1, §2, §3, §4, §5, §6, §7
The effects on T cell activation of different functional group substitutions on the TRIP chemical structure (Formula Ia) were examined by measuring the expression of IFN-γ and IL-2 RNA in human acute T cell leukemia Jurkat cells in vitro.
A strong increase is defined as a ≥50% increase compared to the control. A moderate increase is defined as a 25-49% increase compared to the control. A weak increase is defined as a 0-24% increase compared to the control. No effect is when there was no increase compared to the control.

IFN-γ [2] = experiment: Example 6: IFN-γ ELISpot response to BP25 peptide in allograft-bearing mice; format: in vivo, C57BL/6 wild type mice; settings: Day 28, TRIP 100 mg/kg + PV 100 μg
Procedure: IFN-γ immune response to scrambled and BP25 peptides following treatment with control (n=5), TRIP 100 mg/kg (n=6), PV 100 μg (n=6) and the TRIP+PV (n=6) combination. Each of four weekly 100 μg injections of peptide vaccine (PV) was preceded by three daily oral doses of TRIP. All mice were implanted with breast cancer allografts on Day 0, and spleens were collected for enzyme-linked immunosorbent spot (ELISpot) analysis on Day 28 following four weeks of treatment. The BP25 peptide is a 25-mer and the target antigen of the PV, while the scrambled peptide is a control peptide containing the same 25 amino acids in a scrambled arrangement.
On Day 0 of the study, all 32 mice were subcutaneously implanted with 1.0×10^6 mouse breast cancer cells expressing the PV target antigen (BP25). Two days later, mice began a three-day regimen of once daily 100 mg/kg TRIP administered orally. On Day 5, mice were administered their first weekly 100 μg dose of PV by subcutaneous injection. This treatment schedule was repeated for a total of four weeks. Tumor growth was assessed twice weekly. All mice were euthanized on Day 28 for the collection of serum and spleens to assess immune response to treatment. Immune response was assessed by performing IFN-γ ELISpot.

regulatory T cell (Treg) = settings: chronic daily TRIP 50 mg/kg + two cycles of PV
Procedure: A total of 55 mixed-sex hMUC1.Tg C57BL/6 mice, starting at approximately five weeks of age, were treated with urethane as described above. Approximately six weeks after the last dose of urethane, mice were randomized into four treatment groups of approximately equal average weight: Control (n=22); TRIP (i.e., ospemifene) 50 mg/kg (n=16); tecemotide (L-BLP25) peptide vaccine (PV) (n=6); and TRIP+PV (n=11). At this time (Week 21), mice assigned to the […] began treatment with the first of two cycles consisting of eight weekly 10 μg doses each, with approximately four weeks between cycles. Cycle 1 was administered during Weeks 21-28, and Cycle 2 from Weeks 32-39. The PV was prepared and administered as described above. Mice in the TRIP groups began daily oral treatment in Week 31, which continued through the end of the study (approximately eight weeks of dosing). TRIP was prepared and administered as described above. Mice not assigned to TRIP treatment received daily oral doses of diluent. At the conclusion of the study, 48 h after the final dose of PV and 24 h after the last dose of TRIP, all mice were euthanized for the collection of serum and spleens, which were processed as described above for multiplex serum cytokine, Treg, and CTL analyses.

[3] = mRNA in Jurkat cells in vitro, relative to control sample without TRIP compound

For `OCCOc1ccc(/C(=C(/CCCl)c2ccccc2)c2ccccc2)cc1` [TRIP, Z-2-[4-(4-chloro-1,2-diphenyl-but-1-enyl)-phenoxy]ethanol], the “expression of IFN-γ compared to control, TRIP+tamoxifen” value (IFN-γ [1]; Jurkat cells, TRIP 2.5 μM plus tamoxifen 2.5 μM, 24 hours (FIG. 2)) was “significantly increased”, the “IFN-γ RNA expression compared to control” value (IFN-γ [1]; Jurkat cells, different concentrations of TRIP, 24 hours, dose-dependent (FIG. 1A)) was “significantly induced” and the “expression of IFN-γ compared to control” value (IFN-γ [1]; Jurkat cells, single agent 2.5 μM, 24 hours (FIG. 2)) was “significantly increased”. For the same molecule, the “IFN-γ Expression” value (IFN-γ [1]; [3]) was “+++ (strong increase)”, the “IL-2 RNA expression compared to control” value (IL-2; Jurkat cells, different concentrations of TRIP, 24 hours, dose-dependent (FIG. 1B)) was “significantly induced” and the “IL-2 Expression” value (IL-2; [3]) was “+++ (strong increase)”. The “T cell immune response by ELISpot to the target antigen (BP25), PV in combination with TRIP” value (IFN-γ [2]) was “specific IFN-γ responses”, the “T cell immune response by ELISpot, PV in combination with TRIP compared to PV alone” value (IFN-γ [2]) was “increased immune response” and the “PV-induced immune response as assessed by Treg expression” value (regulatory T cell (Treg)) was “did not significantly affect”.
